Experimental data: US5034530A, “Imidazoquinoxaline compounds and their preparation and use” (Novo Nordisk A/S, priority 1988, dated 1991)

Tested on: benzodiazepine receptors
Assay: in vivo displacement of 3H-flunitrazepam specific binding from brain benzodiazepine receptors in mice
Conditions: dose reducing specific 3H-flunitrazepam binding in living mouse brain to 50% of control; test substance i.p. 15 min before i.v. 3H-FNM; female mice; forebrain
Excerpt: The pharmaceutical properties of the compounds of the invention can be illustrated by determining their capability for displacing radioactive labelled flunitrazepam from benzodiazepine receptors.
The displacement activity of the compounds of the invention may be found by determining the ED50 value. The ED50 value represents the dose (mg/kg) of a test substance which causes the specific binding of flunitrazepam to benzodiazepine receptors in a living brain to be reduced to 50% of the control value.
Such an in vivo test is carried out as follows:
Principle. Twenty minutes after a dose of ^3 H-flunitrazepam (^3 H-FNM) (200 μCi/kg, i.v.) the amount of specific ^3 H-FNM binding to brain benzodiazepine receptors has reached its maximal value.
Test procedure. Suspensions of test substances (2 mg/ml) are prepared in 5% Duphasol-X (TM Duphar, castor oil-ethylene oxide derivative for emulsifying and solubilizing oil and other water-insoluble substances) by sonification for 10 min using a Branson B15 microtip ultrasonifier (setting 7). Groups of three mice (female, NMR, 18-22 grams) are injected with the test substance at 100 mg/kg intraperitoneally. Fifteen minutes after test substance administration the mice are challenged with 4 μCi intravenously of ^3 H-FNM (70-90 Ci/mole) in 200 μl physiological saline. Twenty minutes after ^3 H-FNM administration mice are sacrificed by decapitation, the forebrains rapidly excised (within 30 sec) and homogenized in 12 ml of icecold 25 mM KH2 PO4, pH 7.1, using an Ultra-Turrax homogenizer fitted with an N 10 shaft. […] The amounts of radioactivity on the filters are determined by conventional scintillation counting. […]
Results. The ED50 value is determined from dose response curves. If only one dose of test substance is administered the ED50 value is calculated as follows, provided that the inhibition of specific binding is within the range of 25-75%: [formula] where Co is specific binding in controls and Cx is specific binding in mice treated with test substance.

SMILES	ED50 [mg/kg]
Cc1nc(-c2ncn3c2c(C)nc2ccccc23)no1 [Compound 8, 4-Methyl-3-(5-methyl-1,2,4-oxadiazol-3-yl)-imidazo[1,5-a]quinoxaline]	1.8
Cc1nc2ccccc2n2cnc(-c3nc(C4CC4)no3)c12 [Compound 10, 3-(3-Cyclopropyl-1,2,4-oxadiazol-5-yl)-4-methyl-imidazo[1,5-a]quinoxaline]	3.5
Cc1nc2ccccc2n2cnc(-c3noc(C4CC4)n3)c12 [Compound 7, 3-(5-Cyclopropyl-1,2,4-oxadiazol-3-yl)-4-methyl-imidazo[1,5-a]quinoxaline]	1.3
